According to ChEMBL document CHEMBL5321270, “Discovery of Pyrazolone Carbothioamide Derivatives as Inhibitors of the Pdr1-KIX Interaction for Combinational Treatment of Azole-Resistant Candidiasis” (J Med Chem, 2023):
≈ marks a conversion by molar mass, not a printed value. Calls of active or inactive are those of the source. No cut-off for these calls is given here.

Assays:
[1] = Inhibition of fluorescent probe FITC tagged PDR1-KIX domain (unknown origin) protein-protein interaction assessed as inhibition constant incubated for 2 hrs by fluorescence polarization binding assay
[2] = system: Nakaseomyces glabratus; experiment: Antifungal activity against fluconazole-resistant Candida glabrata 0161 assessed as fungal growth inhibition incubated for 48 hrs by microplate reader assay; format: functional
[3] = system: Nakaseomyces glabratus; experiment: Antifungal activity against fluconazole-resistant Candida glabrata 0161 assessed as fractional inhibitory concentration incubated for 48 hrs in presence of fluconazole by microplate reader assay; format: functional
[4] = system: Nakaseomyces glabratus; experiment: Antifungal activity against fluconazole-resistant Candida glabrata 0161 assessed as fluconazole fractional inhibitory concentration incubated for 48 hrs in presence of fluconazole by microplate reader assay; format: functional
[5] = system: Nakaseomyces glabratus; experiment: Synergistic antifungal activity against fluconazole-resistant Candida glabrata 0161 assessed as fractional inhibitory concentration index incubated for 48 hrs in presence of fluconazole by checkerboard microdilution method; format: functional
[6] = system: Nakaseomyces glabratus; experiment: Antifungal activity against fluconazole-sensitive Candida glabrata 7669 assessed as fungal growth inhibition incubated for 48 hrs by microplate reader assay; format: functional, organism-based
[7] = system: Nakaseomyces glabratus; experiment: Antifungal activity against fluconazole-resistant Candida glabrata 9256 assessed as fungal growth inhibition incubated for 48 hrs by microplate reader assay; format: functional
[8] = system: Nakaseomyces glabratus; experiment: Antifungal activity against fluconazole-resistant Candida glabrata 8535 assessed as fungal growth inhibition incubated for 48 hrs by microplate reader assay; format: functional
[9] = system: Candida albicans; experiment: Antifungal activity against Candida albicans 103 assessed as fungal growth inhibition incubated for 48 hrs by microplate reader assay; format: functional, organism-based
[10] = system: Candida albicans; experiment: Antifungal activity against Candida albicans 5314 assessed as fungal growth inhibition incubated for 48 hrs by microplate reader assay; format: functional, organism-based
[11] = system: Candida albicans; experiment: Antifungal activity against Candida albicans 0029 assessed as fungal growth inhibition incubated for 48 hrs by microplate reader assay; format: functional, organism-based
[12] = system: Candida albicans; experiment: Antifungal activity against Candida albicans assessed as fungal growth inhibition incubated for 48 hrs by microplate reader assay; format: functional
[13] = system: Candida tropicalis; experiment: Antifungal activity against Candida tropicalis 10186 assessed as fungal growth inhibition incubated for 48 hrs by microplate reader assay; format: functional
[14] = system: Candida parapsilosis; experiment: Antifungal activity against Candida parapsilosis 20090 assessed as fungal growth inhibition incubated for 48 hrs by microplate reader assay; format: functional; conditions: Lodderomyces parapsilosis
[15] = system: [Candida] auris; experiment: Antifungal activity against Candida auris 0030 assessed as fungal growth inhibition incubated for 48 hrs by microplate reader assay; format: functional; conditions: Candidozyma auris
[16] = system: [Candida] auris; experiment: Antifungal activity against Candida auris 15448 assessed as fungal growth inhibition incubated for 48 hrs by microplate reader assay; format: functional; conditions: Candidozyma auris
[17] = system: Aspergillus fumigatus; experiment: Antifungal activity against Aspergillus fumigatus 7544 assessed as fungal growth inhibition incubated for 48 hrs by microplate reader assay; format: functional
[18] = system: Nannizzia gypsea; experiment: Antifungal activity against Microsporum gypseum assessed as fungal growth inhibition incubated for 48 hrs by microplate reader assay; format: functional
[19] = system: Trichophyton rubrum; experiment: Antifungal activity against Trichophyton rubrum assessed as fungal growth inhibition incubated for 48 hrs by microplate reader assay; format: functional
[20] = system: Cryptococcus neoformans; experiment: Antifungal activity against Cryptococcus neoformans H99 assessed as fungal growth inhibition incubated for 48 hrs by microplate reader assay; format: functional

SMILES	Ki [1] [µM]	MIC [2] [µg/mL]	FIC [3] [µg/mL]	fluconazole MIC in combination [4] [µg/mL]	fractional inhibitory concentration index (FICI) [5]	Activity [6]	Activity [7]	Activity [8]	Activity [9]	Activity [10]	Activity [11]	other results
Cc1ccc(NC(=S)NNC(=O)CC#N)cc1	476	64 (≈ 258 µM)	2	16	0.53	inactive	inactive	inactive	inactive	inactive	inactive	–
Nc1cc(=O)n(C(=S)Nc2ccc(Cl)cc2Cl)[nH]1	84.7	0.5 (≈ 1.65 µM)	0.13	1	0.29	–	–	–	–	–	–	MIC [7]: 0.25 µg/mL (≈ 0.825 µM); MIC [8]: 0.25 µg/mL (≈ 0.825 µM); MIC [12]: 4 µg/mL (≈ 13.2 µM); MIC [13]: 4 µg/mL (≈ 13.2 µM); MIC [14]: 4 µg/mL (≈ 13.2 µM); MIC [15]: 2 µg/mL (≈ 6.6 µM); MIC [16]: 2 µg/mL (≈ 6.6 µM); MIC [17]: 16 µg/mL (≈ 52.8 µM); MIC [18]: 1 µg/mL (≈ 3.3 µM); MIC [19]: 1 µg/mL (≈ 3.3 µM); MIC [20]: 0.063 µg/mL (≈ 0.208 µM)
N#CCC(=O)NNC(=S)Nc1ccc(N2CCOCC2)cc1	622	16 (≈ 50.1 µM)	8	0.5	0.52	inactive	inactive	inactive	inactive	inactive	inactive	–
N#CCC(=O)NNC(=O)Nc1cccc(Cl)c1	119	> 64	2	16	0.53	inactive	inactive	inactive	inactive	inactive	inactive	–
Nc1cc(=O)n(C(=S)Nc2ccccc2Cl)[nH]1	85.8	0.5 (≈ 1.86 µM)	0.13	16	0.76	–	–	–	–	–	–	MIC [7]: 0.25 µg/mL (≈ 0.93 µM); MIC [8]: 0.25 µg/mL (≈ 0.93 µM); MIC [12]: 4 µg/mL (≈ 14.9 µM); MIC [13]: 4 µg/mL (≈ 14.9 µM); MIC [14]: 4 µg/mL (≈ 14.9 µM); MIC [15]: 2 µg/mL (≈ 7.44 µM); MIC [16]: 2 µg/mL (≈ 7.44 µM); MIC [17]: 16 µg/mL (≈ 59.5 µM); MIC [18]: 1 µg/mL (≈ 3.72 µM); MIC [19]: 1 µg/mL (≈ 3.72 µM); MIC [20]: 0.063 µg/mL (≈ 0.234 µM)
N#CCC(=O)NNC(=S)Nc1ccc2c(c1)CCC2	256	16 (≈ 58.3 µM)	8	1	0.53	inactive	inactive	inactive	inactive	inactive	inactive	–
N#CCC(=O)NNC(=S)Nc1ccc(Cl)cc1	139	64 (≈ 238 µM)	2	16	0.53	inactive	inactive	inactive	inactive	inactive	inactive	–
COc1ccc(NC(=S)NNC(=O)CC#N)cc1	348	> 64	2	16	0.53	inactive	inactive	inactive	inactive	inactive	inactive	–
N#CCC(=O)NNC(=S)Nc1ccc(Cl)cc1Cl	37.3	16 (≈ 52.8 µM)	8	2	0.56	inactive	inactive	inactive	inactive	inactive	inactive	–
